pIC50: −log10 of the molar value.
Key:
[1] = biological target: T1, BA/F3-FLT3-ITD + D835Y (Homo sapiens, UniProt P36888, D835Y, cells depend on it, form not given); test: Engineered BA/F3 cell growth assay, FLT3 ITD/D835Y; assay type: cell-based, murine; conditions: 3 d growth
T1 sequence (P36888 with tags, fused parts or gaps INS600HVDFREYEYD/D835Y): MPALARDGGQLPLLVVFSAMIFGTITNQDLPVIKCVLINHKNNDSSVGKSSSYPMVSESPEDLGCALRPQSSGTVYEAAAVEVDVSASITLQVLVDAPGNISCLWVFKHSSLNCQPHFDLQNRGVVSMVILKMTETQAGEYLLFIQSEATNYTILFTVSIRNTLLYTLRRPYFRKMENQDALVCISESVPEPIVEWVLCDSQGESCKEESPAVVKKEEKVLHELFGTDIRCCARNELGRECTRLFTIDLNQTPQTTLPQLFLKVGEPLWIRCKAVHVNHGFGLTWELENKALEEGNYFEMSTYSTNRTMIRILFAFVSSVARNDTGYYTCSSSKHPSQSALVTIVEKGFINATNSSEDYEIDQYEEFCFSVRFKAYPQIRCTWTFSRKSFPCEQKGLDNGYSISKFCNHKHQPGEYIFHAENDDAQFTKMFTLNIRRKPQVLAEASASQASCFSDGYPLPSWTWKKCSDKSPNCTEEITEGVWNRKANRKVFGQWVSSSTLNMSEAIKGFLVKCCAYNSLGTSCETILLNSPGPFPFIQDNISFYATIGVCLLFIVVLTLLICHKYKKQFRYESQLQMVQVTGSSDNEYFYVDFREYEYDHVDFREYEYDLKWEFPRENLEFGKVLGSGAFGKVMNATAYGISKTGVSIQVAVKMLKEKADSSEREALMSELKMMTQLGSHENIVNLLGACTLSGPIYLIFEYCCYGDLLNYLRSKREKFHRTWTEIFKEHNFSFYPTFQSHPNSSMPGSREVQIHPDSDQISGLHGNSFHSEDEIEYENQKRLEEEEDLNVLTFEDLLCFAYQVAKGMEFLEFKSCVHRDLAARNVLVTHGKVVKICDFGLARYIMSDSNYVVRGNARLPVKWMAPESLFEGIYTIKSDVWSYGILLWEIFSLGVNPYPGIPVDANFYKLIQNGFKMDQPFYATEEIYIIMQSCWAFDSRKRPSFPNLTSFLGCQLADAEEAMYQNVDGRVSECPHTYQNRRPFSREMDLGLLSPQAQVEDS
Summary of the method: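 Murine Ba/F3 cells transfected with full-length FLT3 ITD/D835Y, grown without IL-3 so growth depends on FLT3. Seeded at 1×10^4 cells/well, 8-point 1:3 series to 1 μM top (0.2% DMSO), 3 days at 37 °C. CellTiter-Glo luminescence (ATP) versus concentration gave IC50.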

[2] = tested on: MOLM-14 D835Y (endogenous FLT3 ITD and transfected FLT3 D835Y); test: MOLM-14 D835Y cell proliferation assay (CellTiter-Glo); assay type: cell-based; conditions: Homo sapiens, MOLM-14, 72 h; 3 d growth, GMean
Summary of the method: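 MOLM-14 cells (FLT3 ITD) carrying D835Y or F691L, 1×10^4 cells/well, eight 1:3 dilutions from 1 μM final, 0.2% DMSO, 3 days at 37 °C, 5% CO2. Viability by CellTiter-Glo luminescence (ATP content); IC50 from concentration-response.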

Compound | GI50 [1] | pIC50 [2]
Cc1cc(CC(=O)Nc2cccc(C(F)(F)F)c2)ccc1-c1cnc2[nH]c(-c3ccccc3)cc2c1 [Compound P-0002, 2-[3-methyl-4-(2-phenyl-1H-pyrrolo[2,3-b]pyridin-5-yl)phenyl]-N-[3-(trifluoromethyl)phenyl]acetamide] | 0.0001 to 10 µM | –
O=C(Cc1ccc(-c2cnc(Nc3cnn(C(F)F)c3)nc2)c(F)c1)Nc1cc(C(F)(F)F)ccn1 [Compound P-0024, 2-[4-[2-[[1-(difluoromethyl)pyrazol-4-yl]amino]pyrimidin-5-yl]-3-fluoro-phenyl]-N-[4-(trifluoromethyl)-2-pyridyl]acetamide] | 0.0001 to 10 µM | 5.00 to 10.00
COc1ncc(NC(=O)Cc2ccc(-c3cnc(Nc4cn[nH]c4)nc3)cc2)cc1C(F)(F)F [Compound P-0025, N-[6-methoxy-5-(trifluoromethyl)-3-pyridyl]-2-[4-[2-(1H-pyrazol-4-ylamino)pyrimidin-5-yl]phenyl]acetamide] | 0.0001 to 10 µM | 5.00 to 10.00
COc1ncc(NC(=O)Cc2ccc(-c3cnc(Nc4cn[nH]c4)nc3)cc2F)cc1C(F)(F)F [Compound P-0026, 2-[2-fluoro-4-[2-(1H-pyrazol-4-ylamino)pyrimidin-5-yl]phenyl]-N-[6-methoxy-5-(trifluoromethyl)-3-pyridyl]acetamide] | 0.0001 to 10 µM | 5.00 to 10.00
Cc1ncc(NC(=O)Cc2ccc(-c3cnc(Nc4cn[nH]c4)nc3)cc2F)cc1C(F)(F)F [Compound P-0027, 2-[2-fluoro-4-[2-(1H-pyrazol-4-ylamino)pyrimidin-5-yl]phenyl]-N-[6-methyl-5-(trifluoromethyl)-3-pyridyl]acetamide] | 0.0001 to 10 µM | 5.00 to 10.00
O=C(Cc1ccc(-c2cnc3[nH]cc(F)c3c2)cc1F)Nc1ccnc(C(F)(F)F)c1 [Compound P-0029, 2-[2-fluoro-4-(3-fluoro-1H-pyrrolo[2,3-b]pyridin-5-yl)phenyl]-N-[2-(trifluoromethyl)-4-pyridyl]acetamide] | 0.0001 to 10 µM | –
O=C(Cc1ccc(-c2cnc3[nH]c(Cl)cc3c2)cc1F)Nc1ccnc(C(F)(F)F)c1 [Compound P-0030, 2-[4-(2-chloro-1H-pyrrolo[2,3-b]pyridin-5-yl)-2-fluoro-phenyl]-N-[2-(trifluoromethyl)-4-pyridyl]acetamide] | 0.0001 to 10 µM | –
CC(=O)c1c[nH]c2ncc(-c3ccc(CC(=O)Nc4ccnc(C(F)(F)F)c4)c(F)c3)cc12 [Compound P-0031, 2-(4-(3-acetyl-1H-pyrrolo[2,3-b]pyridin-5-yl)-2-fluorophenyl)-N-(2-(trifluoromethyl)pyridin-4-yl)acetamide] | 0.0001 to 10 µM | 5.00 to 10.00
O=C(Cc1ccc(-c2cnc3[nH]cc(C(=O)C4CC4)c3c2)cc1F)Nc1ccnc(C(F)(F)F)c1 [Compound P-0032, 2-[4-[3-(cyclopropanecarbonyl)-1H-pyrrolo[2,3-b]pyridin-5-yl]-2-fluoro-phenyl]-N-[2-(trifluoromethyl)-4-pyridyl]acetamide] | 0.0001 to 10 µM | 5.00 to 10.00
O=C(Cc1ccc(-c2cnc(Nc3cnn4ccccc34)nc2)cc1F)Nc1ccnc(C(F)(F)F)c1 [Compound P-0033, 2-[2-fluoro-4-[2-(pyrazolo[1,5-a]pyridin-3-ylamino)pyrimidin-5-yl]phenyl]-N-[2-(trifluoromethyl)-4-pyridyl]acetamide] | 0.0001 to 10 µM | 5.00 to 10.00
COc1ncc(NC(=O)Cc2ccc(-c3cnc4[nH]cc(F)c4c3)cc2F)cc1C(F)(F)F [Compound P-0034, 2-[2-fluoro-4-(3-fluoro-1H-pyrrolo[2,3-b]pyridin-5-yl)phenyl]-N-[6-methoxy-5-(trifluoromethyl)-3-pyridyl]acetamide] | 0.0001 to 10 µM | 5.00 to 10.00
COc1ncc(NC(=O)Cc2ccc(-c3cnc4[nH]cc(C(C)=O)c4c3)cc2F)cc1C(F)(F)F [Compound P-0035, 2-[4-(3-acetyl-1H-pyrrolo[2,3-b]pyridin-5-yl)-2-fluoro-phenyl]-N-[6-methoxy-5-(trifluoromethyl)-3-pyridyl]acetamide] | 0.0001 to 10 µM | 5.00 to 10.00
COc1ncc(NC(=O)Cc2ccc(-c3cnc4[nH]cc(C(=O)C5CC5)c4c3)cc2F)cc1C(F)(F)F [Compound P-0036, 2-[4-[3-(cyclopropanecarbonyl)-1H-pyrrolo[2,3-b]pyridin-5-yl]-2-fluoro-phenyl]-N-[6-methoxy-5-(trifluoromethyl)-3-pyridyl]acetamide] | 0.0001 to 10 µM | 5.00 to 10.00
COc1ncc(NC(=O)Cc2ccc(-c3cnc(Nc4cnn5ccccc45)nc3)cc2F)cc1C(F)(F)F [Compound P-0037, 2-[2-fluoro-4-[2-(pyrazolo[1,5-a]pyridin-3-ylamino)pyrimidin-5-yl]phenyl]-N-[6-methoxy-5-(trifluoromethyl)-3-pyridyl]acetamide] | 0.0001 to 10 µM | 5.00 to 10.00
COc1ncc(NC(=O)Cc2ccc(-c3cnc4[nH]c(Cl)cc4c3)cc2F)cc1C(F)(F)F [Compound P-0038, 2-[4-(2-chloro-1H-pyrrolo[2,3-b]pyridin-5-yl)-2-fluoro-phenyl]-N-[6-methoxy-5-(trifluoromethyl)-3-pyridyl]acetamide] | 0.0001 to 10 µM | 5.00 to 10.00
CC(C)(C)c1ccc(NC(=O)Cc2ccc(-c3cnc4[nH]cc(F)c4c3)cc2F)cn1 [Compound P-0043, N-(6-tert-butyl-3-pyridyl)-2-[2-fluoro-4-(3-fluoro-1H-pyrrolo[2,3-b]pyridin-5-yl)phenyl]acetamide] | 0.0001 to 10 µM | 5.00 to 10.00
O=C(Cc1ccc(-c2cnc3[nH]cc(F)c3c2)cc1F)Nc1cc(Cl)c(C2CC2)cn1 [Compound P-0044, N-(4-chloro-5-cyclopropyl-2-pyridyl)-2-[2-fluoro-4-(3-fluoro-1H-pyrrolo[2,3-b]pyridin-5-yl)phenyl]acetamide] | 0.0001 to 10 µM | 5.00 to 10.00
COc1ncc(NC(=O)Cc2cc(F)c(-c3cnc4[nH]c(Cl)cc4c3)cc2F)cc1C(F)(F)F [Compound P-0045, 2-[4-(2-chloro-1H-pyrrolo[2,3-b]pyridin-5-yl)-2,5-difluoro-phenyl]-N-[6-methoxy-5-(trifluoromethyl)-3-pyridyl]acetamide] | 0.0001 to 10 µM | –
COc1ncc(NC(=O)Cc2ccc(-c3cnc4[nH]c(Cl)cc4c3)c(F)c2)cc1C(F)(F)F [Compound P-0046, 2-[4-(2-chloro-1H-pyrrolo[2,3-b]pyridin-5-yl)-3-fluoro-phenyl]-N-[6-methoxy-5-(trifluoromethyl)-3-pyridyl]acetamide] | 0.0001 to 10 µM | –
COc1ncc(NC(=O)Cc2ccc(-c3cnc4[nH]cc(Cl)c4n3)cc2F)cc1C(F)(F)F [Compound P-0047, 2-[4-(7-chloro-5H-pyrrolo[2,3-b]pyrazin-2-yl)-2-fluoro-phenyl]-N-[6-methoxy-5-(trifluoromethyl)-3-pyridyl]acetamide] | 0.0001 to 10 µM | 5.00 to 10.00
COc1ncc(NC(=O)Cc2ccc(-c3cnc4[nH]cc(F)c4c3)c(F)c2)cc1C(F)(F)F [Compound P-0048, 2-[3-fluoro-4-(3-fluoro-1H-pyrrolo[2,3-b]pyridin-5-yl)phenyl]-N-[6-methoxy-5-(trifluoromethyl)-3-pyridyl]acetamide] | 0.0001 to 10 µM | –
COc1ncc(NC(=O)Cc2cc(F)c(-c3cnc4[nH]cc(F)c4c3)cc2F)cc1C(F)(F)F [Compound P-0051, 2-[2,5-difluoro-4-(3-fluoro-1H-pyrrolo[2,3-b]pyridin-5-yl)phenyl]-N-[6-methoxy-5-(trifluoromethyl)-3-pyridyl]acetamide] | 0.0001 to 10 µM | –
Cn1cc(Nc2ncc(-c3ccc(CC(=O)NCc4ccc(C(F)(F)F)cn4)cc3)cn2)cn1 [Compound P-0162, 2-[4-[2-[(1-methylpyrazol-4-yl)amino]pyrimidin-5-yl]phenyl]-N-[[5-(trifluoromethyl)-2-pyridyl]methyl]acetamide] | 0.0001 to 10 µM | –
Cn1cnc(Nc2ncc(-c3ccc(CC(=O)Nc4cc(C(C)(F)F)ccn4)cc3F)cn2)c1 [Compound P-0171, N-[4-(1,1-difluoroethyl)-2-pyridyl]-2-[3-fluoro-4-[2-[(1-methylimidazol-4-yl)amino]pyrimidin-5-yl]phenyl]acetamide] | 0.0001 to 10 µM | –
